Key:
CD4/8+ T cells = assay: Intracellular IFN-γ after PMA/ionomycin stimulation of expanded T cells; type: cell-based, human; conditions: IL-2 and Cbl inhibitor expanded T cells; PMA/ionomycin 6 h
Procedure: T cell activity was determined by analysis of cytokine secretion. To investigate whether these expanded T cells are capable of responding to extracellular stimulation, T cells were stimulated with 25 ng/mL phorbol myristate acetate (PMA) and 0.5 μM ionomycin. After 90 min of stimulation, monensin, 1:50, (GolgiStop, BD Biosciences) was added. After 6 h, cells were stained for surface expression of CD4+, CD8+, CD45RA+, CD95+, CCR7+, CD62L+, and subsequently, fixed, permeabilized and stained for intracellular cytokine, IFN-γ.

OT-1 cells [1] = assay: Tumor re-challenge of long term survivors 149 days after OT-1 transfer; type: in vivo, mouse
Excerpt: To determine whether OT-1 cells are capable of long-term tumor protection, the long term survivors of the above experiment (FIG. 12) were re-challenged with a lethal dose of E.G7-OVA tumor cells 149 days after the initial adoptive transfer of the in vitro expanded OT-1 cells. Re-challenge induced OT-1 cell expansion at the site engrafted with E.G7-OVA tumor cells expressing ovalbumin antigen, thereby effectively controlling tumor growth (FIG. 21).

[2] = tested on: human tumor-infiltrating lymphocytes (TIL); assay: Rapid Expansion Protocol (REP) of TIL; type: cell-based; conditions: day 42 (Pre-REP and REP)
Procedure: PBMC, OKT3 antibody (30 ng/mL), complete medium (“CM”), AIM V media (GIBCO/BRL), and TIL effector cells were combined, mixed, and aliquoted to a 75 cm^2 tissue culture flask. Flasks were incubated upright at 37° C. in 5% CO2. […] About 14 days after initiation of the REP, cells were harvested and cryopreserved for future experimental analysis.

OT-1 cells [3] = assay: Re-stimulation of harvested splenocytes with OVA Class I peptide; type: cell-based, mouse
Procedure: The expanded OT-1 cells were characterized by FACS analysis and transferred into E.G7-OVA mice, which bear ovalbumin (OVA) expressing tumors. Following in vivo transfer of expanded OT-1 cells, antitumor response was monitored over time and the quality and quantity of immune response was assessed at various time points. Analysis included FACS analysis on blood, tumor, and spleen samples. Analysis also included re-stimulation of splenocytes with OVA Class I peptide to evaluate the multifunctionality of the antigen-specific effector T cells.
Expanded OT-1 cells were assessed from splenocytes 11 days after transfer. Harvested splenocytes were re-stimulated with OVA Class I peptide for 72 hours.
Expanded OT-1 cells were assessed from splenocytes 11 days after transfer. Harvested splenocytes were re-stimulated with OVA Class I peptide for 4 hours.
Expanded OT-1 cells were assessed from splenocytes 11 days after transfer. Harvested splenocytes were re-stimulated with OVA Class I peptide for 24 hours.

[4] = tested on: human tumor-infiltrating lymphocytes (TIL); assay: Flow cytometry immunophenotyping of expanded TIL; type: cell-based; conditions: for CD4 TCM CD62L+ CCR7+, percentage of total TIL cell number / CD4 TEM CD62L− CCR7−, percentage of total TIL cell number / CD8 TCM CD62L+ CCR7−, percentage of total TIL cell number / CD8 TEM CD62L− CCR7−, percentage of total TIL cell number: TIL1 population, day 28
Procedure: The plates were placed in a humidified 37° C. incubator with 5% CO2. Half of the medium was replaced every two days after culture initiation. […] Subsequently, half the media was replaced thrice weekly, cultures were split to maintain a cell density of 1×10^6 cells/mL. […] Mitochondrial markers including, Mitotracker, Mitoprobe, and 2-NBDG may also be used to assess differentiation and/or activation of cells.
T lymphocytes were defined based on lineage and differentiation marker expression according to the developmental model (Restifo, Blood, 124:476-477, 2014), as shown in Table 4.

CD8+ and CD4+ TIL = assay: CD107a and granzyme B in TIL after anti-CD3/CD28 stimulation; type: cell-based, human
Procedure: In the context of cytotoxicity, granzyme B (Grb), a protease secreted to mediate apoptosis, was assessed.

TIL = assay: Cytokine and chemokine secretion of expanded TIL (Luminex); type: cell-based, human
Procedure: Also assessed were cytokines and chemokines secreted during the 14 day expansion in GREX.
Supernatants were assessed by Luminex.

[5] = Cbl inhibitor expanded, 4 hours restimulation
[6] = IL-2 + compound 103, upon stimulation
[7] = expanded with IL2 + compound 103, anti-CD3/CD28 6 hours

C[C@@H]1CN(Cc2cc3c(c(C(F)(F)F)c2)CN(c2cccc(C4(Cc5nncn5C)COC4)c2)C3=O)CCC1(F)F [compound 103]
CD4/8+ T cells capable of producing IFN-γ (CD4/8+ T cells): greater than 85%
Number of OT-1 cells in blood (in vivo persistence) (OT-1 cells [1]; 149 days after transfer, expanded with Cbl inhibitor or Cbl inhibitor plus IL-2): present at a higher number in the blood
Recall response after tumor re-challenge vs IL-2 alone (OT-1 cells [1]; OT-1 cells per ml of blood at day 5, Cbl inhibitor or Cbl inhibitor plus IL-2): significantly more rapid recall response
Expansion of TIL (REP), total cell number relative to IL-2 alone ([2]; TIL1 (ovary), 0.1 μM Cbl-i): 40%
Expansion of TIL (REP), total cell number relative to IL-2 alone ([2]; TIL1 (ovary), 1.0 μM Cbl-i): 42%
Expansion of TIL (REP), total cell number relative to IL-2 alone ([2]; TIL1 (ovary), 10 μM Cbl-i): 32%
Expansion of TIL (REP), total cell number relative to IL-2 alone ([2]; TIL1 (ovary), IL-2 + 0.1 μM Cbl-i): 50%
Expansion of TIL (REP), total cell number relative to IL-2 alone ([2]; TIL1 (ovary), IL-2 + 1.0 μM Cbl-i): 52%
Expansion of TIL (REP), total cell number relative to IL-2 alone ([2]; TIL1 (ovary), IL-2 + 10 μM Cbl-i): 49%
Expansion of TIL (REP), total cell number relative to IL-2 alone ([2]; TIL3 (ovary), 0.1 μM Cbl-i): 127%
Expansion of TIL (REP), total cell number relative to IL-2 alone ([2]; TIL3 (ovary), 1.0 μM Cbl-i): 150%
Expansion of TIL (REP), total cell number relative to IL-2 alone ([2]; TIL3 (ovary), 10 μM Cbl-i): 107%
Expansion of TIL (REP), total cell number relative to IL-2 alone ([2]; TIL3 (ovary), IL-2 + 0.1 μM Cbl-i): 193%
Expansion of TIL (REP), total cell number relative to IL-2 alone ([2]; TIL3 (ovary), IL-2 + 1.0 μM Cbl-i): 207%
Expansion of TIL (REP), total cell number relative to IL-2 alone ([2]; TIL3 (ovary), IL-2 + 10 μM Cbl-i): 197%
Expansion of TIL (REP), total cell number relative to IL-2 alone ([2]; TIL4 (colon), 0.1 μM Cbl-i): 80%
Expansion of TIL (REP), total cell number relative to IL-2 alone ([2]; TIL4 (colon), 1.0 μM Cbl-i): 80%
Expansion of TIL (REP), total cell number relative to IL-2 alone ([2]; TIL4 (colon), 10 μM Cbl-i): 107%
Expansion of TIL (REP), total cell number relative to IL-2 alone ([2]; TIL4 (colon), IL-2 + 0.1 μM Cbl-i): 167%
Expansion of TIL (REP), total cell number relative to IL-2 alone ([2]; TIL4 (colon), IL-2 + 1.0 μM Cbl-i): 194%
Expansion of TIL (REP), total cell number relative to IL-2 alone ([2]; TIL4 (colon), IL-2 + 10 μM Cbl-i): 240%
Expansion of TIL (REP), total cell number relative to IL-2 alone ([2]; TIL6 (ovary), 0.1 μM Cbl-i): 51%
Expansion of TIL (REP), total cell number relative to IL-2 alone ([2]; TIL6 (ovary), 1.0 μM Cbl-i): 63%
Expansion of TIL (REP), total cell number relative to IL-2 alone ([2]; TIL6 (ovary), 10 μM Cbl-i): 49%
Expansion of TIL (REP), total cell number relative to IL-2 alone ([2]; TIL6 (ovary), IL-2 + 0.1 μM Cbl-i): 206%
Expansion of TIL (REP), total cell number relative to IL-2 alone ([2]; TIL6 (ovary), IL-2 + 1.0 μM Cbl-i): 180%
Expansion of TIL (REP), total cell number relative to IL-2 alone ([2]; TIL6 (ovary), IL-2 + 10 μM Cbl-i): 168%
Exhaustion markers (PD1 and TIM3) in multifunctional cells vs IL-2 alone (OT-1 cells [3]; [5]): lower level of expression of exhaustion markers
Multifunctionality (IFN-gamma and TNF-alpha double positive cells) vs IL-2 alone (OT-1 cells [3]; [5]): comparable multifunctionality
IL-2 production upon restimulation (OT-1 cells [3]; Cbl inhibitor expanded, 24 hours restimulation): increased IL-2 production upon restimulation
Proliferation in response to peptide restimulation vs IL-2 alone (OT-1 cells [3]; Cbl inhibitor expanded, splenocytes 11 days after transfer, 72 hours): superior intrinsic ability to proliferate
Proliferation in response to peptide restimulation (OT-1 cells [3]; expanded with Cbl inhibitor and IL-2, 72 hours): even greater intrinsic ability to proliferate
CD4 TCM CD62L+ CCR7+, percentage of total TIL cell number ([4]; 0.1 μM Cbl-i): 2.8%
CD4 TEM CD62L− CCR7−, percentage of total TIL cell number ([4]; 0.1 μM Cbl-i): 67.2%
CD8 TCM CD62L+ CCR7−, percentage of total TIL cell number ([4]; 0.1 μM Cbl-i): 19.5%
CD8 TEM CD62L− CCR7−, percentage of total TIL cell number ([4]; 0.1 μM Cbl-i): 37.2%
CD4 TCM CD62L+ CCR7+, percentage of total TIL cell number ([4]; 1.0 μM Cbl-i): 8.0%
CD4 TEM CD62L− CCR7−, percentage of total TIL cell number ([4]; 1.0 μM Cbl-i): 24.2%
CD8 TCM CD62L+ CCR7−, percentage of total TIL cell number ([4]; 1.0 μM Cbl-i): 20.2%
CD8 TEM CD62L− CCR7−, percentage of total TIL cell number ([4]; 1.0 μM Cbl-i): 15.6%
CD4 TCM CD62L+ CCR7+, percentage of total TIL cell number ([4]; 10 μM Cbl-i): 15.8%
CD4 TEM CD62L− CCR7−, percentage of total TIL cell number ([4]; 10 μM Cbl-i): 66.7%
CD8 TCM CD62L+ CCR7−, percentage of total TIL cell number ([4]; 10 μM Cbl-i): 29.7%
CD8 TEM CD62L− CCR7−, percentage of total TIL cell number ([4]; 10 μM Cbl-i): 13.2%
CD4 TCM CD62L+ CCR7+, percentage of total TIL cell number ([4]; IL-2 + 0.1 μM Cbl-i): 12.1%
CD4 TEM CD62L− CCR7−, percentage of total TIL cell number ([4]; IL-2 + 0.1 μM Cbl-i): 49.3%
CD8 TCM CD62L+ CCR7−, percentage of total TIL cell number ([4]; IL-2 + 0.1 μM Cbl-i): 20.3%
CD8 TEM CD62L− CCR7−, percentage of total TIL cell number ([4]; IL-2 + 0.1 μM Cbl-i): 35.5%
CD4 TCM CD62L+ CCR7+, percentage of total TIL cell number ([4]; IL-2 + 1.0 μM Cbl-i): 15.2%
CD4 TEM CD62L− CCR7−, percentage of total TIL cell number ([4]; IL-2 + 1.0 μM Cbl-i): 57.3%
CD8 TCM CD62L+ CCR7−, percentage of total TIL cell number ([4]; IL-2 + 1.0 μM Cbl-i): 16.5%
CD8 TEM CD62L− CCR7−, percentage of total TIL cell number ([4]; IL-2 + 1.0 μM Cbl-i): 43.3%
CD4 TCM CD62L+ CCR7+, percentage of total TIL cell number ([4]; IL-2 + 10 μM Cbl-i): 0%
CD4 TEM CD62L− CCR7−, percentage of total TIL cell number ([4]; IL-2 + 10 μM Cbl-i): 55.8%
CD8 TCM CD62L+ CCR7−, percentage of total TIL cell number ([4]; IL-2 + 10 μM Cbl-i): 20.5%
CD8 TEM CD62L− CCR7−, percentage of total TIL cell number ([4]; IL-2 + 10 μM Cbl-i): 35.4%
Selective expansion of CD8+ T lymphocytes ([4]; malignant ovarian tumor sample, FIG. 7): selectively expand CD8+ T lymphocytes
CD107A+GRB+ cells (CD8+ and CD4+ TIL; [6]): significant increase
Granzyme B (Grb) produced in TIL vs IL-2 alone (CD8+ and CD4+ TIL; [6]): significant increase of Grb
CD4+ TIL capable of producing CD107a (CD8+ and CD4+ TIL; [7]): greater than 60%
CD8+ TIL capable of producing CD107a (CD8+ and CD4+ TIL; [7]): greater than 60%
GMCSF, MIP1α, MIP1β and IP10 secreted during 14 day expansion in GREX (TIL; IL-2 + compound 103): trending increases
IFN-γ secreted during 14 day expansion in GREX (TIL; IL-2 + compound 103): significant increase of IFN-γ
Secretion of IL-2, IL-5, IL-7, IL-21, IL-23, TNF-α, and IFN-γ upon stimulation (TIL; high dose IL-2 + 1 μM compound 103, 24 hours): significant secretion
Secretion of MIP1α and MIP1β upon stimulation (TIL; high dose IL-2 + 1 μM compound 103, anti-CD3/CD28 24 hours): significant increases in secretion

Reference: patent US12121540B2, “CBL inhibitors and compositions for use in adoptive cell therapy” (Nurix Therapeutics, Inc., priority 2019, dated 2024)
